Test results reported in patent publication US7384931B2, “Constrained compounds as CGRP-receptor antagonists” (Bristol-Myers Squibb Company, priority 2004, dated 2008).

What was measured:
CGRP receptor [1] = biological target: T1, CGRP receptor (Homo sapiens, UniProt O60894+Q16602); assay: Cyclic AMP functional antagonism assay in SK-N-MC cells; assay type: cell-based; design: SK—N-MC cells that endogenously express the human CGRP receptor; endogenous in cells; host or cells: SK-N-MC cells; conditions: inhibition of 0.3 nM CGRP-induced cyclic AMP formation, 15 min pre-incubation, read-out: cAMP Function IC50
Procedure: Cyclic AMP Functional Antagonism Assay. Antagonism of the compounds of invention was determined by measuring the formation of cyclic AMP (adenosine 3′5′-cyclic monophosphate) in SK—N-MC cells that endogenously express the human CGRP receptor. CGRP receptor complex is coupled with Gs protein and CGRP binding to this complex leads to the cyclic AMP production via Gs—dependent activation of an adenylate cyclase (Juaneda C et al., TiPS, 2000; 21:432-438; incorporated by reference herein). Consequently, CGRP receptor antagonists inhibit CGRP—induced cyclic AMP formation in SK—N-MC cells (Doods H et al., Br J Pharmacol, 2000; 129(3):420-423); incorporated by reference herein). For cyclic AMP measurements SK—N-MC cells were incubated with 0.3 nM CGRP alone or in the presence of various concentrations of the compounds of invention for 30 min at room temperature. Compounds of invention were pre-incubated with SK—N-MC cells for 15 min before the addition of CGRP to allow receptor occupancy (Edvinsson et al., Eur J Pharmacol, 2001, 415:39-44; incorporated by reference herein). Cyclic AMP was extracted using the lysis reagent and its concentration was determined by radioimmunoassay using RPA559 cAMP SPA Direct Screening Assay Kit (Amersham Pharmacia Biotech). IC50 values were calculated using Excel fit.

CGRP receptor [2] = biological target: T1, CGRP receptor; assay: CGRP radioligand binding assay ([125I]-CGRP displacement, SK-N-MC homogenate); design: endogenous in cells; host or cells: SK-N-MC cells (homogenate/membrane pellet); conditions: displacement of [125I]-CGRP, room temperature 2 h
Outline: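 SK-N-MC cell homogenate (5 μg/well) was incubated 2 h at room temperature with [125I]-CGRP (diluted to 60 pM before addition) in 50 mM Tris-Cl pH 7.5, 5 mM MgCl2, 0.005% Triton X-100 plus protease inhibitors. Bound radioactivity was collected by filtration; 1 μM beta-CGRP defined non-specific binding. IC50 is 50% radioligand displacement.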

T1 sequence (Q16602 23-461): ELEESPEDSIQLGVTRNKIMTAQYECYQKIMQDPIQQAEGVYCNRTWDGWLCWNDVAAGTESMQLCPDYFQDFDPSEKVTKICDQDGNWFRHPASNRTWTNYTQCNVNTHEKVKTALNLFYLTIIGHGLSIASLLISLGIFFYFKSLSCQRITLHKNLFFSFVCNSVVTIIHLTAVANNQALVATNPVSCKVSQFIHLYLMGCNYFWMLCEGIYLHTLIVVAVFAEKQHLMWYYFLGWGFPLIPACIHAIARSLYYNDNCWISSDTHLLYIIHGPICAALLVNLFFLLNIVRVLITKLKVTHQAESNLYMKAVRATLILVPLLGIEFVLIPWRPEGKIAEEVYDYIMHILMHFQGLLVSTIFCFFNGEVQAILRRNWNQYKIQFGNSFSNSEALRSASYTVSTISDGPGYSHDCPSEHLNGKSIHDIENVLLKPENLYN
T1 sequence (O60894 27-148): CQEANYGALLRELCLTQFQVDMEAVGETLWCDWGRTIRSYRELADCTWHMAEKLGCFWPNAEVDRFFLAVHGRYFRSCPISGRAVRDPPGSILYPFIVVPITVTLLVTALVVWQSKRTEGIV

Compound: O=C(N[C@@H]1Cc2ccc3[nH]ncc3c2CN(Cc2ccccc2)C1=O)N1CCC(N2Cc3ccccc3NC2=O)CC1 [Example 1, 4-(2-Oxo-1,4-dihydro-2H-quinazolin-3-yl)-piperidine-1-carboxylic acid (9-benzyl-8-oxo-3,6,7,8,9,10-hexahydro-2,3,9-triaza-(R)-cyclohepta[e]inden-7-yl)-amide]
- IC50 (CGRP receptor [1]): 10 to 100 nM
- IC50 (CGRP receptor [2]): 10 to 100 nM

Compound: CC(C)(C)CN1C(=O)C(CC(=O)N2CCC(N3Cc4ccccc4NC3=O)CC2)Cc2cc3[nH]ncc3cc21 (centres unmarked) [Example 6, 5-Neopentyl-7-(2-oxo-2-(4-(2-oxo-1,2-dihydroquinazolin-3(4H)-yl)piperidin-1-yl)ethyl)-7,8-dihydro-1H-pyrazolo[3,4-g]quinolin-6(5H)-one]
- IC50 (CGRP receptor [1]): 10 to 100 nM
- IC50 (CGRP receptor [2]): 10 to 100 nM

Compound: C[C@@H](c1ccccc1)N1Cc2c(ccc3[nH]ncc23)C[C@@H](NC(=O)N2CCC(N3Cc4ccccc4NC3=O)CC2)C1=O [Example 10, 4-(2-Oxo-1,4-dihydro-2H-quinazolin-3-yl)-piperidine-1-carboxylic acid [8-oxo-9-(1-(S)-phenyl-ethyl)-3,6,7,8,9,10-hexahydro-2,3,9-triaza-(R)-cyclohepta[e]inden-7-yl]-amide]
- IC50 (CGRP receptor [1]): 10 to 100 nM
- IC50 (CGRP receptor [2]): 10 to 100 nM

Compound: C[C@H](c1ccccc1)N1Cc2c(ccc3[nH]ncc23)C[C@@H](NC(=O)N2CCC(N3Cc4ccccc4NC3=O)CC2)C1=O [Example 11, 4-(2-Oxo-1,4-dihydro-2H-quinazolin-3-yl)-piperidine-1-carboxylic acid [8-oxo-9-(1-(R)-phenyl-ethyl)-3,6,7,8,9,10-hexahydro-2,3,9-triaza-(R)-cyclohepta[e]inden-7-yl]-amide]
- IC50 (CGRP receptor [1]): 10 to 100 nM
- IC50 (CGRP receptor [2]): 10 to 100 nM

Compound: O=C(N[C@@H]1Cc2cc(Cl)c3[nH]ncc3c2CN(Cc2ccccc2)C1=O)N1CCC(N2Cc3ccccc3NC2=O)CC1 [Example 12, 4-(2-Oxo-1,4-dihydro-2H-quinazolin-3-yl)-piperidine-1-carboxylic acid (9-benzyl-4-chloro-8-oxo-3,6,7,8,9,10-hexahydro-2,3,9-triaza-(R)-cyclohepta[e]inden-7-yl)-amide]
- IC50 (CGRP receptor [1]): 0.1 to 10 nM
- IC50 (CGRP receptor [2]): 0.1 to 10 nM

Compound: CC(C)(C)CCN1Cc2c(ccc3[nH]ncc23)C[C@@H](NC(=O)N2CCC(N3Cc4ccccc4NC3=O)CC2)C1=O [Example 16, 4-(2-Oxo-1,4-dihydro-2H-quinazolin-3-yl)-piperidine-1-carboxylic acid [9-(3,3-dimethyl-butyl)-8-oxo-3,6,7,8,9,10-hexahydro-2,3,9-triaza-(R)-cyclohepta[e]inden-7-yl]-amide]
- IC50 (CGRP receptor [1]): 0.1 to 10 nM
- IC50 (CGRP receptor [2]): 0.1 to 10 nM

Compound: Cc1cc2c(c3cn[nH]c13)CN(CC(C)(C)C)C(=O)[C@H](CC(=O)N1CCC(c3cc4cccc(F)c4[nH]c3=O)CC1)C2 [Example 101, (S)-7-(2-(4-(8-fluoro-2-oxo-1,2-dihydroquinolin-3-yl)piperidin-1-yl)-2-oxoethyl)-4-methyl-9-neopentyl-6,7,9,10-tetrahydroazepino[3,4-e]indazol-8(3H)-one]
- IC50 (CGRP receptor [2]): 10 to 100 nM

Compound: Cc1cc2c(c3cn[nH]c13)CN(CC(F)(F)F)C(=O)[C@H](CC(=O)N1CCC(c3cc4ccccc4[nH]c3=O)CC1)C2 [Example 102, (S)-4-methyl-7-(2-oxo-2-(4-(2-oxo-1,2-dihydroquinolin-3-yl)piperidin-1-yl)ethyl)-9-(2,2,2-trifluoroethyl)-6,7,9,10-tetrahydroazepino[3,4-e]indazol-8(3H)-one]
- IC50 (CGRP receptor [2]): 0.1 to 10 nM

Compound: Cc1cc2c(c3cn[nH]c13)CN(CC(F)(F)F)C(=O)[C@H](CC(=O)N1CCC(c3cc4cccc(F)c4[nH]c3=O)CC1)C2 [Example 103, (S)-7-(2-(4-(8-fluoro-2-oxo-1,2-dihydroquinolin-3-yl)piperidin-1-yl)-2-oxoethyl)-4-methyl-9-(2,2,2-trifluoroethyl)-6,7,9,10-tetrahydroazepino[3,4-e]indazol-8(3H)-one]
- IC50 (CGRP receptor [2]): 10 to 100 nM

Compound: CC(C)c1cc2c(c3cn[nH]c13)CN(CC(C)(C)C)C(=O)[C@H](CC(=O)N1CCC(c3cc4ccccc4[nH]c3=O)CC1)C2 [Example 104, (S)-4-isopropyl-9-neopentyl-7-(2-oxo-2-(4-(2-oxo-1,2-dihydroquinolin-3-yl)piperidin-1-yl)ethyl)-6,7,9,10-tetrahydroazepino[3,4-e]indazol-8(3H)-one]
- IC50 (CGRP receptor [2]): 10 to 100 nM

Compound: CC(C)c1cc2c(c3cn[nH]c13)CN(CC(C)(C)C)C(=O)[C@H](CC(=O)N1CCC(c3cc4cccc(F)c4[nH]c3=O)CC1)C2 [Example 105, (S)-7-(2-(4-(8-fluoro-2-oxo-1,2-dihydroquinolin-3-yl)piperidin-1-yl)-2-oxoethyl)-4-isopropyl-9-neopentyl-6,7,9,10-tetrahydroazepino[3,4-e]indazol-8(3H)-one]
- IC50 (CGRP receptor [2]): 10 to 100 nM

Compound: CC(C)c1cc2c(c3cn[nH]c13)CN(CC(F)(F)F)C(=O)[C@H](CC(=O)N1CCC(c3cc4ccccc4[nH]c3=O)CC1)C2 [Example 106, (S)-4-isopropyl-7-(2-oxo-2-(4-(2-oxo-1,2-dihydroquinolin-3-yl)piperidin-1-yl)ethyl)-9-(2,2,2-trifluoroethyl)-6,7,9,10-tetrahydroazepino[3,4-e]indazol-8(3H)-one]
- IC50 (CGRP receptor [2]): 10 to 100 nM

Compound: CC(C)c1cc2c(c3cn[nH]c13)CN(CC(F)(F)F)C(=O)[C@H](CC(=O)N1CCC(c3cc4cccc(F)c4[nH]c3=O)CC1)C2 [Example 107, (S)-7-(2-(4-(8-fluoro-2-oxo-1,2-dihydroquinolin-3-yl)piperidin-1-yl)-2-oxoethyl)-4-isopropyl-9-(2,2,2-trifluoroethyl)-6,7,9,10-tetrahydroazepino[3,4-e]indazol-8(3H)-one]
- IC50 (CGRP receptor [2]): 100 to 1000 nM

Compound: C=C(C)c1cc2c(c3cn[nH]c13)CN(CC(F)(F)F)C(=O)[C@H](CC(=O)N1CCC(c3cc4ccccc4[nH]c3=O)CC1)C2 [Example 108, (S)-7-(2-oxo-2-(4-(2-oxo-1,2-dihydroquinolin-3-yl)piperidin-1-yl)ethyl)-4-(prop-1-en-2-yl)-9-(2,2,2-trifluoroethyl)-6,7,9,10-tetrahydroazepino[3,4-e]indazol-8(3H)-one]
- IC50 (CGRP receptor [2]): 10 to 100 nM

Compound: C=C(C)c1cc2c(c3cn[nH]c13)CN(CC(F)(F)F)C(=O)[C@H](CC(=O)N1CCC(c3cc4cccc(F)c4[nH]c3=O)CC1)C2 [Example 109, (S)-7-(2-(4-(8-fluoro-2-oxo-1,2-dihydroquinolin-3-yl)piperidin-1-yl)-2-oxoethyl)-4-(prop-1-en-2-yl)-9-(2,2,2-trifluoroethyl)-6,7,9,10-tetrahydroazepino[3,4-e]indazol-8(3H)-one]
- IC50 (CGRP receptor [2]): 100 to 1000 nM

Compound: O=C(C[C@@H]1Cc2cc(Br)c3[nH]ncc3c2CN(CC2CC2)C1=O)N1CCC(c2cc3cccc(F)c3[nH]c2=O)CC1 [Example 112, (S)-4-bromo-9-(cyclopropylmethyl)-7-(2-(4-(8-fluoro-2-oxo-1,2-dihydroquinolin-3-yl)piperidin-1-yl)-2-oxoethyl)-6,7,9,10-tetrahydroazepino[3,4-e]indazol-8(3H)-one]
- IC50 (CGRP receptor [2]): 10 to 100 nM

Compound: COCCN1Cc2c(cc(Br)c3[nH]ncc23)C[C@@H](CC(=O)N2CCC(c3cc4ccccc4[nH]c3=O)CC2)C1=O [Example 113, (S)-4-bromo-9-(2-methoxyethyl)-7-(2-oxo-2-(4-(2-oxo-1,2-dihydroquinolin-3-yl)piperidin-1-yl)ethyl)-6,7,9,10-tetrahydroazepino[3,4-e]indazol-8(3H)-one]
- IC50 (CGRP receptor [2]): 0.1 to 10 nM

Compound: CC(C)(C)CN1Cc2c(cc(Cl)c3[nH]ncc23)C[C@@H](CC(=O)N2CCC(c3cc4ccc(Cl)cc4[nH]c3=O)CC2)C1=O [Example 116]
- IC50 (CGRP receptor [2]): 0.1 to 10 nM

Compound: CC(C)(C)CN1Cc2c(cc(Cl)c3[nH]ncc23)C[C@@H](CC(=O)N2CCC(c3cc4cccc(Cl)c4[nH]c3=O)CC2)C1=O [Example 117]
- IC50 (CGRP receptor [2]): 100 to 1000 nM

Compound: CC(C)(C)CN1Cc2c(cc(Cl)c3[nH]ncc23)C[C@@H](CC(=O)N2CCC(c3cc4c(F)cccc4[nH]c3=O)CC2)C1=O [Example 118]
- IC50 (CGRP receptor [2]): 10 to 100 nM

Compound: CC(C)(C)CN1Cc2c(cc(Cl)c3[nH]ncc23)C[C@@H](CC(=O)N2CCC(c3cc4ccc(F)nc4[nH]c3=O)CC2)C1=O [Example 119]
- IC50 (CGRP receptor [2]): > 1000 nM

Compound: CC(C)(C)CN1Cc2c(cc(Cl)c3[nH]ncc23)C[C@@H](CC(=O)N2CCC(c3cc4ccc(F)cc4[nH]c3=O)CC2)C1=O [Example 120]
- IC50 (CGRP receptor [2]): 0.1 to 10 nM

Compound: (7S)-9-Benzyl-7-(2-oxo-2-(4-(2-oxo-1,2,3,4-tetrahydroquinolin-3-yl)piperazin-1-yl)ethyl)-6,7,9,10-tetrahydroazepino[3,4-e]indazol-8(3H)-one [Example 58]
- IC50 (CGRP receptor [2]): 100 to 1000 nM
